# Results published in ChEMBL document CHEMBL2424645, “Phosphorylated ganciclovir derivatives: design, synthesis and in vitro and in vivo immunomodulatory activity” (Med Chem Res, 2013).
# Activity calls are given as the source filed them. The calls are words filed in the database; no cut-off is given here.
# Assays:
# Neutrophil [1] = assay: Immunomodulatory activity in human neutrophils assessed as increase in intracellular killing activity at 20 ug/mL after 20 mins by NBT dye reduction assay relative to control; type: functional; parameters: scale not given: the % may be the effect or the level left
# Rattus norvegicus [2] = assay: Immunomodulatory activity in high fat diet-induced obese Wistar albino rat impaired immune model assessed as decrease in total lymphocytes count at 8 mg/kg, po after 8 weeks by hematology analyser relative to control; type: functional, organism-based; parameters: dose 8 mg/kg
# Neutrophil [3] = assay: Immunomodulatory activity in human neutrophils assessed as increase in intracellular killing activity at 10 ug/mL after 20 mins by NBT dye reduction assay relative to control; type: functional; parameters: scale not given: the % may be the effect or the level left
# Rattus norvegicus [4] = assay: Immunomodulatory activity in high fat diet-induced obese Wistar albino rat impaired immune model assessed as TNF-alpha level at 8 mg/kg, po after 8 weeks by ELISA relative to vehicle-treated control; type: functional
# [5] = Toxicity in Wistar albino rat; type: organism-based; conditions: in vivo
# Neutrophil [6] = assay: Immunomodulatory activity in human neutrophils assessed as increase in intracellular killing activity at 1000 ug/mL after 20 mins by NBT dye reduction assay relative to control; type: functional; parameters: scale not given: the % may be the effect or the level left
# Rattus norvegicus [7] = assay: Immunomodulatory activity in high fat diet-induced obese Wistar albino rat impaired immune model assessed as IL-1 level at 8 mg/kg, po after 8 weeks by ELISA relative to relative to high fat-diet fed rat with immune dysfunction; type: functional
# Rattus norvegicus [8] = assay: Immunomodulatory activity in high fat diet-induced obese Wistar albino rat impaired immune model assessed as CRP level at 8 mg/kg, po after 8 weeks by ELISA relative to high fat-diet fed rat with immune dysfunction; type: functional
# Rattus norvegicus [9] = assay: Immunomodulatory activity in high fat diet-induced obese Wistar albino rat impaired immune model assessed as decrease in total monocytes count at 8 mg/kg, po after 8 weeks by hematology analyser relative to control; type: functional, organism-based; parameters: dose 8 mg/kg
# Neutrophil [10] = assay: Immunomodulatory activity in human neutrophils assessed as increase in intracellular killing activity at 40 ug/mL after 20 mins by NBT dye reduction assay relative to control; type: functional; parameters: scale not given: the % may be the effect or the level left
# Neutrophil [11] = assay: Immunomodulatory activity in human neutrophils assessed as increase in intracellular killing activity at 100 ug/mL after 20 mins by NBT dye reduction assay relative to control; type: functional; parameters: scale not given: the % may be the effect or the level left
# Rattus norvegicus [12] = assay: Immunomodulatory activity in high fat diet-induced obese Wistar albino rat impaired immune model assessed as decrease in total neutrophils count at 8 mg/kg, po after 8 weeks by hematology analyser relative to control; type: functional, organism-based; parameters: dose 8 mg/kg
# Rattus norvegicus [13] = assay: Immunomodulatory activity in high fat diet-induced obese Wistar albino rat impaired immune model assessed as IL-6 level at 8 mg/kg, po after 8 weeks by ELISA relative to vehicle-treated control; type: functional
Structure (SMILES),Activity (Neutrophil [1]),Activity (Rattus norvegicus [2]),Activity (Neutrophil [3]),Activity (Rattus norvegicus [4]),LD50 [5],Activity (Neutrophil [6]),Activity (Rattus norvegicus [7]),Activity (Rattus norvegicus [8]),Activity (Rattus norvegicus [9]),Activity (Neutrophil [10]),Activity (Neutrophil [11]),Activity (Rattus norvegicus [12]),Activity (Rattus norvegicus [13])
COC(=O)C(NCP1(=O)OCC(OCn2cnc3c(=O)[nH]c(N)nc32)CO1)C(C)C (stereo not given),55.09%,Active,41.18%,37.1 pg/mL,80 mg/kg,65.14%,123.6 pg/mL,22.3 ng/mL,Active,60.83%,62.45%,Active,5.4 pg/mL
Nc1nc2c(ncn2COC(CO)CO)c(=O)[nH]1 [GANCICLOVIR],53.21%,–,39.43%,–,80 mg/kg,60.11%,–,–,–,55.89%,58.23%,–,–
NCCNCP1(=O)OCC(OCn2cnc3c(=O)[nH]c(N)nc32)CO1 (stereo not given),42.51%,–,40.12%,inactive,80 mg/kg,50.46%,inactive,inactive,–,45.35%,47.3%,–,inactive
Nc1nc2c(ncn2COC2COP(=O)(COCCO)OC2)c(=O)[nH]1 (stereo not given),46.44%,–,34.31%,inactive,80 mg/kg,53.02%,inactive,inactive,–,49.85%,51.23%,–,inactive
CCOC(=O)C(CO)NCP1(=O)OCC(OCn2cnc3c(=O)[nH]c(N)nc32)CO1 (stereo not given),39.92%,–,39.8%,–,80 mg/kg,56.02%,–,inactive,–,48.11%,53.09%,–,–
CCOC(=O)C(N)CSCP1(=O)OCC(OCn2cnc3c(=O)[nH]c(N)nc32)CO1 (stereo not given),56.34%,Active,45.03%,36.5 pg/mL,80 mg/kg,66.82%,122.9 pg/mL,21.9 ng/mL,Active,58.04%,60.16%,Active,5.2 pg/mL
Nc1nc2c(ncn2COC2COP(=O)(CSCCO)OC2)c(=O)[nH]1 (stereo not given),43.73%,–,32.25%,inactive,80 mg/kg,55.35%,inactive,inactive,–,47.93%,52.15%,–,inactive
NCCSCP1(=O)OCC(OCn2cnc3c(=O)[nH]c(N)nc32)CO1 (stereo not given),45.64%,–,33.77%,inactive,80 mg/kg,57.91%,inactive,inactive,–,49.32%,50.36%,–,inactive
CCOC(=O)C(CC(C)C)NCP1(=O)OCC(OCn2cnc3c(=O)[nH]c(N)nc32)CO1 (stereo not given),40.92%,–,39.17%,–,80 mg/kg,58.03%,–,inactive,–,49.31%,51.44%,–,–
CCOC(=O)C(NCP1(=O)OCC(OCn2cnc3c(=O)[nH]c(N)nc32)CO1)c1ccc(O)cc1 (stereo not given),42.46%,–,39.58%,–,80 mg/kg,62.25%,–,inactive,–,49.49%,52.31%,–,–
CCC(CO)NCP1(=O)OCC(OCn2cnc3c(=O)[nH]c(N)nc32)CO1 (stereo not given),43.15%,–,31.37%,inactive,80 mg/kg,54.32%,inactive,inactive,–,46.76%,53.98%,–,inactive
Nc1nc2c(ncn2COC2COP(=O)(CNCCO)OC2)c(=O)[nH]1 (stereo not given),45.98%,–,33.38%,inactive,80 mg/kg,55.25%,inactive,inactive,–,48.54%,50.57%,–,inactive
CCOC(=O)C(NCP1(=O)OCC(OCn2cnc3c(=O)[nH]c(N)nc32)CO1)c1ccccc1 (stereo not given),43.11%,–,40.62%,–,80 mg/kg,60.32%,–,inactive,–,46.63%,52.91%,–,–
